{"source": "patent US20250186546A1", "about": "“Compositions and Methods to Prevent, Inhibit or Treat Autoimmune and Vascular Disease” (priority 2023, published 2025)", "key": {"Jurkat cells": {"test_system": "Jurkat cells", "assay": "Induction of apoptosis in Jurkat cells", "assay_type": "cell-based, human", "conditions": "5 μg/mL, 3 hours", "description": "Apoptotic Jurkat cells were generated by treating Jurkat cells with 5 μg/mL staurosporine in RPMI-1640 medium for 3 hours at a density of 2.5×10^6 cells/mL at 37° C., 5% CO2. The method routinely yields greater than 90% Annexin V^+ apoptotic Jurkat cells. After washing in 1×DPBS, apoptotic Jurkat cells were resuspended at a concentration of 2×10^7 cells/mL in Diluent C with either PKH67 (green fluorescence) or PKH26 (red fluorescence) per the manufacturer's instruction. After labeling, the cells were rinsed twice with DMEM basal medium containing 10% HI-FBS and immediately used for efferocytosis assay. For labeling with other fluorescent probes, ACs were resuspended at a density of 2.5×10^6 cells/mL in DMEM basal media and incubated with 20 ng/mL pHrodo red (Life Technologies) and/or Hoechst 33342 solution (20 mM, 1:10,000 dilution, Thermo Scientific) for 30 minutes, or NuclearMask Blue Stain solution (1:2000 dilution, Invitrogen) for 30 minutes. TAMRA staining was applied to ACs at a concentration of 2×10^7 cells/mL in DMEMbasal medium at 10 μg/mL for 25 minutes."}, "[1]": {"test_system": "Jurkat cells and mouse thymocytes", "assay": "AC preparation for efferocytosis assays (Example 2)", "assay_type": "cell-based, human", "conditions": "3 hours", "description": "(§1) AC preparation and labeling for efferocytosis assays: Jurkat cells (about 10 μm, a human T cell line) and mouse thymocytes (about 5 μm, isolated from mouse thymi) are treated with staurosporine for 3 hours to induce apoptosis. The method routinely yields greater than 90% Annexin V+ ACs (Shi et al., 2022). GA treatment at 10 mM for 1-minute leads to an increase in cell rigidity (Sosale et al., 2015). Mouse RBC are isolated from whole blood freshly and opsonized by IgG (Sosale et al., 2015). Storage at 4° C. for one-week or treatment by GA increases rigidity (Sosale et al., 2015). Mouse RBC are freshly prepared because commercial RBCs are often stored in cold conditions for shipment and thus likely already have increased rigidity. Cells will be labeled by TAMRA (10 μg/mL, 25 minutes, Invitrogen #C1171) that labels both DNA and protein (Shi et al., 2022; Bi et al., 2022). To assess uptake and acidification, ACs are fluorescently labeled by TAMRA (pH-insensitive) and pHrodo (20 ng/mL, 30 minutes, ThermoFisher #P35373, pH-sensitive and only fluoresces in acidic environments) (Shi et al., 2022; Bi et al., 2022). RBC are labeled by PKH26 which labels membrane lipids (Sigma PKH26GL-1KT) (Shi et al., 2022). Cell debris is prepared by passing labeled ACs 10 times through 27G needles (Puigdellivol et al., 2021). […] The % of macrophages that engulfed cargo will be quantified by FACS (Shi et al., 2022)."}, "BMDMs": {"test_system": "BMDMs", "assay": "Engulfment of ACs with increased rigidity by BMDMs", "assay_type": "cell-based, mouse", "conditions": "GA 10 nM, 1 minute, control and Wdfy3 knockout BMDMs", "description": "as §1, with “GA treatment at 10 mM for 1-minute leads to an increase in cell rigidity (Sosale et al., 2015).” left out"}}}
{"smiles": "CN[C@@H]1C[C@H]2O[C@@](C)([C@@H]1OC)n1c3ccccc3c3c4c(c5c6ccccc6n2c5c31)C(=O)NC4", "note": "[staurosporine]", "values": [{"measurement": "Annexin V+ apoptotic Jurkat cells", "setting": "Jurkat cells", "value": "greater than 90%"}, {"measurement": "Annexin V+ ACs", "setting": "[1]", "value": "greater than 90%"}]}
{"smiles": "O=CCCCC=O", "note": "[Glutaraldehyde]", "values": [{"measurement": "engulfment of GA-treated (rigid) ACs by BMDMs", "setting": "BMDMs", "value": "increased engulfment"}, {"measurement": "engulfment of GA-treated (rigid) ACs by BMDMs", "setting": "BMDMs; listed as GA", "value": "more effective engulfment"}]}
